# Where two headings read alike, the source gives them in different places.
# Columns and labels:
# [1] = in vitro; type: cell-based; details: Chinese hamster, Cytotox. CHO-K1
# Description: (§1) COS-1 and CHO-K1 cell suspensions were prepared, seeded into 96-well tissue culture treated black-walled microtiter plates (density determined by cell line), and incubated overnight at 37° C., in 5% CO2 and approximately 95% humidity. The following day, serial dilutions of compound were prepared under sterile conditions and transferred to cell plates. Cell/Compound plates were incubated under the above conditions for 24 hours. Following the incubation period, media/compound was aspirated and 50 μl of resazurin (0.042 mg/ml in PBS w/Ca and Mg) is added. The plates were then incubated under the above conditions for 2 hours and then placed in the dark at room temperature for an additional 30 minutes. Fluorescence measurements were taken (excitation 535 nm, emission 590 nm). The IC50 (concentration of compound causing 50% growth inhibition) was then calculated. Table 3 includes IC50 data for several substituted tetracycline compounds.
# [2] = Mammalian cytotoxicity assay (resazurin), COS-1 cells; type: cell-based; details: African green monkey, read-out: Cytotox. COS-1
# Description: as §1
# [3] = system: gram positive bacteria; test: In vitro anti-bacterial activity assay (broth dilution MIC), gram positive bacteria; type: cell-based, S. aureus; details: 18 h
# Source text: (§2) Bacterial infections may be caused by a wide variety of gram positive and gram negative bacteria. Some of the compounds of the invention are useful as antibiotics against organisms which are resistant and/or sensitive to other tetracycline compounds. The antibiotic activity of the tetracycline compounds of the invention may by using the in vitro standard broth dilution method described in Waitz, J. A., CLSI, Document M7-A2, vol. 10, no. 8, pp. 13-20, 2nd edition, Villanova, Pa. (1990).
# (§3) The following assay was used to determine the efficacy of the tetracycline compounds against gram positive and gram negative bacteria. 2 mg of each compound was dissolved in 100 μl of DMSO. […] The tetracycline compound solutions were diluted to 50 μL volumes, with a test compound concentration of 0.098 μg/ml. Optical density (OD) determinations were made from fresh log-phase broth cultures of the test strains. Dilutions were made to achieve a final cell density of […] CFU/ml. At OD=1, cell densities for different genera were approximately:
# (§4) 50 μl of the cell suspensions were added to each well of microtiter plates. The final cell density was approximately 5×10^5 CFU/ml. These plates were incubated at 35° C. in an ambient air incubator for approximately 18 hours. The plates were read with a microplate reader and were visually inspected when necessary. The MIC was defined as the lowest concentration of the tetracycline compound that inhibits growth. Table 3 includes MIC data for several substituted tetracycline compounds.
# [4] = system: gram negative bacteria; test: In vitro anti-bacterial activity assay (broth dilution MIC), gram negative bacteria; type: cell-based, E. coli
# Source text: as §2, §3, §4
# [5] = system: 3T3 fibroblast cells; test: In vitro phototoxicity assay (neutral red; UV light-treated vs dark control plates); type: cell-based; details: for Photo Toxicity UV Tox50: UV light 50 minutes; for Photo Toxicity Dark Tox50: dark control plate
# Description: 3T3 fibroblast cells were harvested and plated at a concentration of 1×10^5 cells/mL and the plates were incubated overnight at 37° C., in 5% CO2 and approximately 95% humidity. On the following day the medium was removed from the plates and replaced with Hanks' Balanced Salt Solution (HBSS). Compound dilutions were made in HBSS and added to the plates. For each compound tested, a duplicate plate was prepared that was not exposed to light as a control for compound toxicity. Plates were then incubated in a dark drawer (for controls), or under UV light (meter reading of 1.6-1.8 mW/cm^2) for 50 minutes. Cells were then washed with HBSS, fresh medium was added, and plates were incubated overnight as described above. The following day neutral red was added as an indicator of cell viability. The plates were then incubated for an additional 3 hours. Cells were then washed with HBSS and blotted on absorbent paper to remove excess liquid. A solution of 50% EtOH, 10% glacial acetic acid was added and after 20 minutes incubation the plate's absorbance at 535 nm was read using a Wallac Victor 5 spectrophotometer. The phototoxicity reflected the difference between the light-treated and control cultures. Table 3 includes phototoxicity (μM) data for several substituted tetracycline compounds.
# [6] = Staphylococcus aureus, S. aureus MRSA5, read-out: Median MIC's G+ S. aureus MRSA5
# [7] = Staphylococcus aureus, S. aureus RN450, read-out: Median MIC's G+ S. aureus RN450
# [8] = Streptococcus pneumoniae, S. pneumoniae 157E-Strep, read-out: Median MIC's G+ S. pneumoniae 157E-Strep
# [9] = Escherichia coli, 18 h, E. coli D1 209, read-out: Median MIC's G− E. coli D1 209
# [10] = Escherichia coli, 18 h, E. coli MG 1655, read-out: Median MIC's G− E. coli MG 1655
# [11] = Escherichia coli, ATCC25922, 18 h, E. coli ATCC 25922, read-out: Median MIC's G− E. coli ATCC 25922
# [12] = Pseudomonas aeruginosa, 18 h, P. aeruginosa K201 PAO6609, read-out: Median MIC's G− P. aeruginosa K201 PAO6609
SMILES,IC50 at 24 h [1] [µM],IC50 at 24 h [2] [µM],"MIC [3, 6] [µg/mL]","MIC [3, 7] [µg/mL]","MIC [3, 8] [µg/mL]","MIC [4, 9] [µg/mL]","MIC [4, 10] [µg/mL]","MIC [4, 11] [µg/mL]","MIC [4, 12] [µg/mL]",Photo Toxicity UV Tox50 [5],Photo Toxicity Dark Tox50 [5]
CCN(CC)CCCC(C)NC(=O)c1ccc(O)c2c1C[C@H]1C[C@H]3[C@H](N(C)C)C(O)=C(C(N)=O)C(=O)[C@@]3(O)C(O)=C1C2=O (stereo partly shown) [AI],> 109,> 109,64,64,64,64,64,64,64,>108.86 µM,>108.86 µM
CC(C)N(C)CC(=O)c1ccc(O)c2c1C[C@H]1C[C@H]3[C@H](N(C)C)C(O)=C(C(N)=O)C(=O)[C@@]3(O)C(O)=C1C2=O [AJ],> 150,> 150,0.5,0.06,0.06,1,0.25,0.25,32,>149.87 µM,>149.87 µM
COC(=O)C1CCN(Cc2ccc(O)c3c2C[C@H]2C[C@H]4[C@H](N(C)C)C(O)=C(C(N)=O)C(=O)[C@@]4(O)C(O)=C2C3=O)CC1 [AK],> 140,> 140,2,0.06,0.06,4,0.5,0.25,64,>140.07 µM,>140.07 µM
CN(C)CC(=O)N1CC=C(c2ccc(O)c3c2C[C@H]2C[C@H]4[C@H](N(C)C)C(O)=C(C(N)=O)C(=O)[C@@]4(O)C(O)=C2C3=O)CC1 [AL],> 145,> 145,32,0.5,0.5,64,16,16,64,>145.35 µM,>145.35 µM
CC(=O)Nc1cccc(-c2ccc(O)c3c2C[C@H]2C[C@H]4[C@H](N(C)C)C(O)=C(C(N)=O)C(=O)[C@@]4(O)C(O)=C2C3=O)c1 [AO],> 16.3,> 16.3,4,0.06,0.06,64,32,4,64,>162.66 µM,>162.66 µM
COc1ccc(CN(C)C)cc1-c1ccc(O)c2c1C[C@H]1C[C@H]3[C@H](N(C)C)C(O)=C(C(N)=O)C(=O)[C@@]3(O)C(O)=C1C2=O [AT],> 146,> 146,0.5,0.06,0.06,1,1,0.5,64,>146.03 µM,>146.03 µM
CN(C)CCC(=O)c1ccc(O)c2c1C[C@H]1C[C@H]3[C@H](N(C)C)C(O)=C(C(N)=O)C(=O)[C@@]3(O)C(O)=C1C2=O [AV],> 153,> 153,0.5,0.06,0.5,64,16,8,64,>153.46 µM,>153.46 µM
CN(C)CCNC(=O)c1cccc(-c2ccc(O)c3c2C[C@H]2C[C@H]4[C@@H](N(C)C)C(O)=C(C(N)=O)C(=O)[C@@]4(O)C(O)=C2C3=O)c1 [A],> 200,> 200,64,8,4,64,64,64,64,M: >200 uM,M: >200 uM
CN1CCN(CC(=O)c2ccc(O)c3c2C[C@H]2C[C@H]4[C@H](N(C)C)C(O)=C(C(N)=O)C(=O)[C@@]4(O)C(O)=C2C3=O)CC1 [BB],> 136,> 136,16,2,1,64,8,32,64,>135.54 µM,>135.54 µM
CN(C)CC(=O)Nc1ccc(-c2ccc(O)c3c2C[C@H]2C[C@H]4[C@H](N(C)C)C(O)=C(C(N)=O)C(=O)[C@@]4(O)C(O)=C2C3=O)cc1 [BC],> 13.6,> 13.6,2,0.06,0.06,1,2,1,64,>135.63 µM,>135.63 µM
CN(C)CCc1ccc(O)c2c1C[C@H]1C[C@H]3[C@H](N(C)C)C(O)=C(C(N)=O)C(=O)[C@@]3(O)C(O)=C1C2=O [BD],> 121,> 121,32,0.5,0.13,64,4,4,64,M: >120.91 uM,M: >120.91 uM
COc1ccc(-c2ccc(O)c3c2C[C@H]2C[C@H]4[C@H](N(C)C)C(O)=C(C(N)=O)C(=O)[C@@]4(O)C(O)=C2C3=O)cc1CNCC(N)=O [BE],> 10.8,> 10.8,32,1,0.13,64,16,64,64,>107.82 µM,>107.82 µM
CN(C)[C@@H]1C(O)=C(C(N)=O)C(=O)[C@@]2(O)C(O)=C3C(=O)c4c(O)ccc(-c5coc(CN6CCCCC6)c5)c4C[C@H]3C[C@@H]12 [BF],> 42.9,> 42.9,1,0.06,0.06,0.5,1,0.25,64,>138.34 µM,>138.34 µM
COCCNCc1ccc(-c2ccc(O)c3c2C[C@H]2C[C@H]4[C@H](N(C)C)C(O)=C(C(N)=O)C(=O)[C@@]4(O)C(O)=C2C3=O)cc1 [BG],45.3 to 125,> 95.6,1,0.06,0.06,0.5,0.5,0.25,64,>146.03 µM,>146.03 µM
